# According to patent publication US6699676B1, “Uses of ouabain and ouabain-like molecules in apoptosis related pathologies” (Corporation du Centre de Recherche du Centre, Hospitalier …, priority 1999, dated 2004):
# Marks after values point to notes of the source that are not given here.
# Experiments:
# [1] = tested on: VSMC-E1A; assay: Intracellular Na+ and K+ content in VSMC-E1A; format: cell-based, rat; conditions: for Intracellular cations K^+i / Intracellular cations Na^+i: ouabain-treated VSMC-E1A, 1 mM, 6 hours
# Experimental: FIG. 1. Kinetics of modulation of intracellular Na^+ (1, 2) and K^+ (3, 4) content by ouabain in VSMC-E1A (1, 3) and Jurkat cells (2, 4). Cells were preincubated for 24 hours in the presence of 10% calf serum in control medium consisting of 91 mM NaCl, 5 mM KCl, 0.9 mM NaH2PO4, 44 mM NaHCO3, 1.8 mM CaCl2, 0.8 mM MgCl2, 33 mM HEPES and 5 mM D-glucose (pH 7.4) with 2 μCi/ml of ^22Na or 0.5 μCi/ml ^86Rb, and 1 mM ouabain was added at the time interval indicated by the arrow. At specific time-points, intracellular Na^+ and K content + was measured as described in Experimental Procedures. Mean values±S.E. obtained in experiments performed in quadruplicate (VSMC-E1A) or triplicate (Jurkat cells) are given.
# To estimate chromatin cleavage, cells were incubated for 1 hr in the presence of 10% calf serum (CS) in the control solution (DMEM, [Na^+]=137 mM; [K^+]=5 mM—line 1) or under equimolar substitution of NaCl by KCl ([Na^+]=14 mM; [K^+]=128 mM—line 2) with or without 1 mM ouabain and then for an additional 6 hours in the same media with or without CS. Intracellular Na^+ and K^+ content was measured as steady-state distribution of isotopes after 24 hours preincubation of cells in control Na^+-enriched solution containing 0.5 μCi/ml ^86Rb or 2 μCilml ^22Na, and additional 6 hours incubation in Na^+—(line 1) or K^+—(line 2) enriched medium, containing 10% CS and isotopes with the same specific activity with or without 1 mM ouabain. For more details see Experimental Procedures. Mean values±S.E. obtained in 3 experiments performed in triplicate (ion content) or quadruplicate (chromatin cleavage) are given. ★p<0.001 compared to ouabain-untreated cells.
# Intracellular Na^+ and K^+ content. The intracellular content of exchangeable Na^+ and K^+ was measured as steady-state distribution of extra- and intracellular ^22Na and ^86Rb, as described previously in detail (22). Briefly, to establish the steady-state distribution of isotopes, VSMC growing in 12× (^22Na) or 24× (^86Rb) well plates or ˜10^6 Jurkat cells in suspension were preincubated for 24 hours in DMEM containing 10% calf serum and 0.5 μCi/ml ^86RbCl or 2 μCi/ml ^22NaCl and then treated in media with compositions shown in FIG. 1 and Tables 3 and 4 and with the same specific radioactivity. At the end of incubation, the VSMC were transferred on ice, washed 4 times with 2 ml of ice-cold medium W, containing 100 mM MgCl2 and 10 mM HEPES-tris buffer (pH 7.4), and lysed with SDS/EDTA mixture. One ml of Jurkat cell suspension was applied on a Whatman type C filter with the cells being washed with 3×5 ml aliquots of ice-cold medium W under negative pressure of 20-30 mm Hg. Radioactivity of the incubation medium and cell lysate was measured with a liquid scintillation analyzer and intracellular cation content was determined as A/am, where A was the radioactivity of the samples (cpm), a was the specific radioactivity of Na^+ and K^+(^86Rb) in the medium (cpm/nmol), and m was the protein content determined by Lowry methods.
# [2] = tested on: VSMC; assay: LDH release (necrosis marker) in VSMC; format: cell-based, rat
# Experimental: VSMC growing in 6-well (LDH release) or 24-well (chromatin cleavage assay) plates were preincubated for 3 hours with or without 1 mM ouabain. In part of the experiments, the cells were subjected to 30 min incubation at 46° C. (heat-treated cells, line 3). They were then incubated in the absence or presence of 10% calf serum during additional 8 hr and chromatin cleavage and LDH release were measured as indicated in Experimental Procedures and with a spectrophotometric kit (Sigma), respectively. Means±S.E. from experiments performed in triplicate (LDH release) or quadruplicate (chromatin cleavage) are given. ★, ★★ p<0.05 and 0.001 compared to ouabain-untreated cells. #p<0.001 compared to serum-supplied, heat-untreated cells.
compound,measurement,setting,value
"C[C@@H]1O[C@@H](O[C@H]2C[C@@H](O)[C@]3(CO)[C@H]4[C@H](O)C[C@]5(C)[C@@H](C6=CC(=O)OC6)CC[C@]5(O)[C@@H]4CC[C@]3(O)C2)[C@H](O)[C@H](O)[C@H]1O [Ouabain, 1β,3β,5,11α,14,19-hexahydroxycard 20 [22]-enolide 3-[6-deoxy-α-L-mannopyrano-sidel]]",intracellular Na^+ content,"[1]; VSMC-E1A, after 2 hours of 1 mM ouabain (from 38±8)",283±30 nmol/mg proteins
same,K^+i content,"[1]; VSMC-E1A, after 2 hours of 1 mM ouabain (from 405±41)",131±19 nmol/mg proteins
same,Na^+i and K^+i content on prolongation of incubation,"[1]; VSMC-E1A, ouabain for up to 5 hours versus 2 hours",did not significantly modify
same,Intracellular cations K^+i,"[1]; medium [Na+]o=14, [K+]o=128 mM",293 nmol/mg prot
same,Intracellular cations Na^+i,"[1]; medium [Na+]o=14, [K+]o=128 mM",51 nmol/mg prot
same,Intracellular cations K^+i,"[1]; medium [Na+]o=137, [K+]o=5 mM",99 nmol/mg prot
same,Intracellular cations Na^+i,"[1]; medium [Na+]o=137, [K+]o=5 mM",312 nmol/mg prot
same,LDH release,"[2]; VSMC, 8 hours incubation with ouabain",did not observe any significant effect
same,heat stress-induced LDH-release,"[2]; VSMC, heat stress 46° C., 30 min, ouabain",did not observe modulation
same,LDH release (%),"[2]; serum-deprived VSMC, 3 hours preincubation 1 mM ouabain, additional 8 hr",1.8 ± 0.4%
same,LDH release (%),"[2]; serum-supplied VSMC, 3 hours preincubation 1 mM ouabain, additional 8 hr",1.2 ± 0.3%
same,LDH release (%),"[2]; serum-supplied, heat-treated (46° C., 30 min) VSMC, 1 mM ouabain, 8 hr",11.0 ± 2.8# %
